# From US20210002641A1, “COMPOSITIONS AND METHODS FOR TREATING GRAVES DISEASE” (The Regents of the University of Michigan, priority 2018, published 2021)
# Columns and labels:
# 3D G-OF organoids [1] = test: Immunofluorescent staining of ECM, LOX and HIF2A proteins in 3D G-OF organoids; type: cell-based, human; conditions: for ECM deposition (collagen types, FN) in G-OF organoids: immunofluorescence, 10 μM GM6001, 30 nM T3, 5 mIU/ml TSH, 0.5 mM BAPN, day 1-6
# Method: (§1) A hanging droplet spheroid culture system was used to generate 3D organoids. To facilitate stable morphology, methylcellulose (Mehocel A4M) was added to the growth medium (52). Prior to seeding the hanging drop culture plate (#HDP1385, Sigma-Aldrich), cells were cultured in 100 mm or 150 mm dishes until reaching approximately 90% confluence. After washing with Hank's Balanced Salt Solution (HBSS), cells were detached using 0.25% Trypsin/EDTA and resuspended in growth medium. After centrifugation for 5 minutes at 300 g, the cell pellet was re-suspended in growth medium containing 0.25% w/v Methocel A4M. Volume was adjusted such that 20,000 cells were contained in 25 μL solution, and 25 μL drops were placed into each well of the drop culture plate (defined as day 0). Organoid medium (growth medium with 0.25% w/v methocel A4M) was used throughout the duration of spheroid culture. Every day, 14 μL culture medium was removed and 14 μL fresh culture medium added to each well.
# (§2) Adipogenic differentiation was induced with (growth or organoid) medium containing 250 nM dexamethasone, 10 nM T3, 10 μM troglitazone, and 1 μg/ml insulin on days 1-5, followed by medium with 10 μM troglitazone and 1 μg/ml insulin on days 6-11, then with medium alone on day 12. For the analysis of the lipid droplet formation, organoids were transferred to super-low attachment 6 well dishes and incubated in HBSS containing BODIPY (#D3922, Thermo Fisher Scientific) at 1:500 ratio by volume for 1 hour, then fixed in 4% paraformaldehyde (PFA) in PBS for 10 minutes at room temperature. Fluorescence intensity of BODIPY-stained lipid droplets were measured using Nikon A1 confocal microscope (Tokyo, Japan) and quantified using Image J software version 1.51n (NIH, Bethesda, Md.). Several compounds were added to droplets on day 1 and maintained at the same concentration until collection of organoids on day 6. For individual experiments, these included 10 μM GM6001, (global MMP inhibitor), 30 nM T3, 5 mIU/ml TSH, 30 nM T3+5 mIU/ml TSH, 0.5 mM BAPN (LOX inhibitor), and 1 μM, 5 μM or 10 μM HIF2A antagonist.
# Organoids were fixed in 4% PFA/PBS overnight with or without permeabilization in 0.5% Triton X-100 in PBS for 1 hour. To stain extracellular collagen and fibronectin, no permeabilization was performed, and all the detergents were excluded from the subsequent procedures. After blocking in 3% BSA/0.1% PBST for 3 hours at room temperature, organoids were washed 3 times for 30 minutes with PBST. Samples were incubated with primary antibody overnight at 4° C. […]
# 3D G-OF organoids [2] = test: Tissue stiffness of 3D G-OF organoids (microindentation compression test); type: cell-based, human; conditions: for tissue stiffness of 3D G-OF organoids: added day 1, kept to day 6, 10 μM GM6001, 30 nM T3, 5 mIU/ml TSH, 0.5 mM BAPN, 1, 5 or 10 μM HIF2A antagonist
# Text: (§3) Orbital adipose tissues were obtained from surgical waste samples of de-identified euthyroid patients with GO undergoing orbital decompression and from non-GO subjects without inflammatory orbital disease, who underwent cosmetic eyelid surgery. OFs were isolated and grown as previously described (49). Briefly, tissues were minced into small pieces, placed on 150 mm culture dishes, and submerged in growth medium (DMEM supplemented with 10% v/v FBS, 1% v/v L-glutamine, 1% v/v antibiotic-antimycotic) at a sufficient depth to cover the tissue chunks. Explants were cultured in a humidified incubator • (at 37° C. with 5% CO2), with growth medium changes every 2-3 days. OFs from five GO patients five non-GO patients were isolated and expanded for subsequent experiments. All experiments were performed using OFs of 3-6 passages after the initial cell isolation.
# as §1
# as §2, with “Fluorescence intensity of BODIPY-stained lipid droplets were measured using Nikon A1 confocal microscope (Tokyo, Japan) and quantified using Image J software version 1.51n (NIH, Bethesda, Md.).” left out
# The mechanical testing of the organoids was performed using the Microsquisher (CellScale, Waterloo, ON, Canada) as recently reported (53). The device consists of a microscale parallelplate compression system equipped with a 406-μm diameter cantilever. Organoids placed on a 3 mm-square plate for analysis. Immediately following collecting, organoids were placed in a 40 mL HBSS fluid bath at 37° C. and the cantilever was lowered until the upper compression plate was in contact with the top of the organoid. The organoids were compressed to 50% deformation (as determined by microscopic camera) for 20 seconds. The force used to produce 50% stain of displacement was measured by the cantilever and data were reported as force/displacement (μN/μm).
# 3D N-OF organoids [3] = test: Immunofluorescent staining of ECM and HIF2A proteins in 3D N-OF organoids; type: cell-based, human; conditions: immunofluorescence; 10 μM GM6001
# Method: as §1, with “Every day, 14 μL culture medium was removed and 14 μL fresh culture medium added to each well.” left out
# (§4) Adipogenic differentiation was induced with (growth or organoid) medium containing 250 nM dexamethasone, 10 nM T3, 10 μM troglitazone, and 1 μg/ml insulin on days 1-5, followed by medium with 10 μM troglitazone and 1 μg/ml insulin on days 6-11, then with medium alone on day 12. […] Fluorescence intensity of BODIPY-stained lipid droplets were measured using Nikon A1 confocal microscope (Tokyo, Japan) and quantified using Image J software version 1.51n (NIH, Bethesda, Md.). […]
# 3D N-OF organoids [4] = test: Tissue stiffness of 3D N-OF organoids (microindentation compression test); type: cell-based, human; conditions: added day 1, kept to day 6; 10 μM GM6001, 5 mIU/ml TSH
# Text: as §3
# A hanging droplet spheroid culture system was used to generate 3D organoids. […]
# (§5) The mechanical testing of the organoids was performed using the Microsquisher (CellScale, Waterloo, ON, Canada) as recently reported (53). […] The organoids were compressed to 50% deformation (as determined by microscopic camera) for 20 seconds. The force used to produce 50% stain of displacement was measured by the cantilever and data were reported as force/displacement (μN/μm).
# mouse OF organoids = test: Tissue stiffness of 3D mouse OF organoids expressing mutant HIF2A (HIF2dPA); type: cell-based; conditions: adeno-Cre-induced HIF2dPA
# Method: ROSA26-STOP-HIF2dPA (flox/flox) mice were provided by Dr. Emestina Schipani (University of Michigan), and used for the isolation of orbital adipose tissue. Cells isolated from this depot were cultivated as previously reported (50) and cultured in a standard growth medium. A degradation-resistant HIF2A mutant was introduced by adenoviral Cre (Vector; Ad5 CMV-Cre)-recombinase by incubation for 16 hours with the virus. Adenoviral GFP (Vector; Ad5 CMV eGFP.dIE3) or Empty (Vector: Ad5 CMV pLpA.dIE3)-recombinase was used as controls.
# (§6) A hanging droplet spheroid culture system was used to generate 3D organoids. To facilitate stable morphology, methylcellulose (Mehocel A4M) was added to the growth medium (52). Prior to seeding the hanging drop culture plate (#HDP1385, Sigma-Aldrich), cells were cultured in 100 mm or 150 mm dishes until reaching approximately 90% confluence. After washing with Hank's Balanced Salt Solution (HBSS), cells were detached using 0.25% Trypsin/EDTA and resuspended in growth medium. […]
# as §5, with “(μN/μm). […]” for “(μN/μm).”
# 3D G-OF organoids [5] = test: Organoid size (cross-sectional area) of 3D G-OF organoids; type: cell-based, human; conditions: T3 30 nM, TSH 5 mIU/ml, or combination; 6-day time course
# Method: as §6, with “medium. After centrifugation for 5 minutes at 300 g, the cell pellet was re-suspended in growth medium containing 0.25% w/v Methocel A4M.” for “medium.”
# as §4
# Bright field images of each organoid were captured in 4× or 10× objective lenses using inverted microscope (Olympus IX70). The largest cross-sectional area (CSA) was calculated using Image J software version 1.51n. […] Intensity of immunofluorescent target proteins was quantified using NIH ImageJ software. […]
# [6] = listed as allosteric HIF2A antagonist
compound,measurement,setting,value
O=[N+]([O-])c1c(Nc2cc(F)cc(Cl)c2)ccc2nonc12 [C12H6ClFN4O3],protein levels of LOX and FN in G-OF organoids,"3D G-OF organoids [1]; HIF2A antagonist 1 μM, 5 μM or 10 μM","reducing protein levels of LOX and FN, in a dose-dependent manner"
same,tissue stiffness of M22-stimulated G-OF organoids,3D G-OF organoids [2]; listed as C12H6ClFN4O03,reversed the tissue stiffness caused by TSHR activation
same,tissue stiffness of M22-stimulated G-OF organoids,3D G-OF organoids [2]; [6],reverses
same,tissue stiffness of TSH-stimulated G-OF organoids,3D G-OF organoids [2]; listed as C12H6ClFN4O03,reversed the tissue stiffness caused by TSHR activation
same,tissue stiffness of TSH-stimulated G-OF organoids,3D G-OF organoids [2]; [6],reverses
same,tissue stiffness of 3D G-OF organoids,3D G-OF organoids [2],normalized the tissue stiffness
CNC(=O)[C@H](Cc1c[nH]c2ccccc12)NC(=O)[C@@H](CC(=O)NO)CC(C)C [GM6001],"ECM deposition (collagen types, FN) in G-OF organoids",3D G-OF organoids [1],"significant accumulation of type I, IV, and VI collagens"
same,ECM deposition (collagen types) in N-OF spheroids,3D N-OF organoids [3],"significant accumulation of type I, IV, and VI collagens"
same,tissue stiffness of 3D N-OF organoids,3D N-OF organoids [4],increased tissue stiffness
same,tissue stiffness of 3D G-OF organoids,3D G-OF organoids [2],increased tissue stiffness
"N#CCCN.O=C(O)/C=C/C(=O)O [BAPN, 3-Aminopropionitrile fumarate salt]",tissue stiffness of mouse OF organoids with mutant HIF2A expression,mouse OF organoids,completely ameliorated the increased tissue stiffness
same,"ECM deposition (collagen types, FN) in G-OF organoids",3D G-OF organoids [1],"effectively suppressed the deposition of collagens type I and IV, FN, but not collagen type III and VI"
same,tissue stiffness of 3D G-OF organoids,3D G-OF organoids [2],reduction of tissue stiffness
"N[C@@H](Cc1cc(I)c(Oc2ccc(O)c(I)c2)c(I)c1)C(=O)O [T3, 3,3′,5-Triiodo-L-thyronine]","ECM deposition (collagen types, FN) in G-OF organoids",3D G-OF organoids [1],no discemable impact
same,organoid size (CSA) of G-OF organoids,3D G-OF organoids [5],significant reduction in CSA
